Assay results from patent publication US8999981B2, “3-amido-pyrrolo[3,4-C]pyrazole-5(1H, 4H,6H) carbaldehyde derivatives” (Pfizer Inc., priority 2007, dated 2015).
pKi: −log10 of the molar value.

Biological target: Protein Kinase C beta 2 (PKCβII) (Homo sapiens (Human), UniProt P05771)
Test: PKCβII coupled PK/LDH spectrophotometric kinase assay
Format: biochemical
Conditions: apparent Ki, ATP-competitive model (Morrison equation); 0.1 mM ATP, 30° C.; read-out: PKCb Ki

Protein Kinase C beta 2 (PKCβII), sequence (P05771 other isoform, or with tags, fused parts or gaps): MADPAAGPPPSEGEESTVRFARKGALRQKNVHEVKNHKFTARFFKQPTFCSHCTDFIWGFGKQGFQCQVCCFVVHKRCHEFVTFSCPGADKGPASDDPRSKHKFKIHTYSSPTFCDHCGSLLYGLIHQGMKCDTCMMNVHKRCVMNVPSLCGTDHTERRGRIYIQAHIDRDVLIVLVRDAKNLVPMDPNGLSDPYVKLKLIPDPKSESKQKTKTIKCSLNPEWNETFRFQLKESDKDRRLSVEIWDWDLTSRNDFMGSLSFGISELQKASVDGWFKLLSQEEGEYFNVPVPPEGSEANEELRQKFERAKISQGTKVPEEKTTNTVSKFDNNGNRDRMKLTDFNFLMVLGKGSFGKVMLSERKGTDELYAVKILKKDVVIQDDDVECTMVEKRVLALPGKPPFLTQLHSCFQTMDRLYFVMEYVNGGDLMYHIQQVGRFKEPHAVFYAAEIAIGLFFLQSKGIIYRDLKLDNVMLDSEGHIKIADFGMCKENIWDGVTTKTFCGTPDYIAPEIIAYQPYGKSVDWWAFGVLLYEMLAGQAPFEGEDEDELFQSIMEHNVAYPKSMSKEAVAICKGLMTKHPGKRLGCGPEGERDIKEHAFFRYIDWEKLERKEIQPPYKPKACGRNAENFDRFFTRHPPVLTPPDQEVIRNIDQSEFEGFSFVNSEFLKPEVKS

Structure (SMILES) | pKi
CC1(C)c2n[nH]c(NC(=O)c3ccccn3)c2CN1C(=O)C1(F)CCN(C2CCC2)CC1 [Example B1, Pyridine-2-carboxylic acid [5-(1-cyclobutyl-4-fluoro-piperidine-4-carbonyl)-6,6-dimethyl-1,4,5,6-tetrahydro-pyrrolo[3,4-c]pyrazol-3-yl]-amide] | 7.12
CC1(C)c2[nH]nc(NC(=O)c3ccccn3)c2CN1C(=O)C1(F)CCN(C2CCOCC2)CC1 [Example B2, Pyridine-2-carboxylic acid {5-[4-fluoro-1-(tetrahydro-pyran-4-yl)-piperidine-4-carbonyl]-6,6-dimethyl-1,4,5,6-tetrahydro-pyrrolo[3,4-c]pyrazol-3-yl}-amide] | 7.05
Cc1nc(C)c(C(=O)Nc2n[nH]c3c2CN(C(=O)N2C[C@@H](C)N(C)C[C@@H]2C)C3(C)C)o1 [Example C2] | 7.30
Cc1nc(C(=O)Nc2n[nH]c3c2CN(C(=O)N2C[C@@H](C)N(C)C[C@@H]2C)C3(C)C)cs1 [Example C3] | 7.45
Cc1ocnc1C(=O)Nc1n[nH]c2c1CN(C(=O)N1C[C@@H](C)N(C)C[C@@H]1C)C2(C)C [Example C4] | 7.35
Cc1ncoc1C(=O)Nc1n[nH]c2c1CN(C(=O)N1C[C@@H](C)N(C)C[C@@H]1C)C2(C)C [Example C5] | 7.33
CCc1nc(C)c(C(=O)Nc2n[nH]c3c2CN(C(=O)N2C[C@@H](C)N(C)C[C@@H]2C)C3(C)C)o1 [Example C6] | 7.59
CCc1ocnc1C(=O)Nc1n[nH]c2c1CN(C(=O)N1C[C@@H](C)N(C)C[C@@H]1C)C2(C)C [Example C7] | 7.18
C[C@@H]1CN(C(=O)N2Cc3c(NC(=O)c4coc(C5CC5)n4)n[nH]c3C2(C)C)[C@@H](C)CN1C [Example C8] | 7.60
CCc1cc(C(=O)Nc2n[nH]c3c2CN(C(=O)N2C[C@@H]4CCCN4C[C@@H]2C)C3(C)C)no1 [Example E1] | 7.21
Cc1cnc(C(=O)Nc2n[nH]c3c2CN(C(=O)N2C[C@@H]4CCCN4C[C@@H]2C)C3(C)C)cn1 [Example E2] | 7.14
C[C@H]1CN2CCC[C@H]2CN1C(=O)N1Cc2c(NC(=O)c3cc4ccccc4cn3)n[nH]c2C1(C)C [Example E3] | 8.26
C[C@H]1CN2CCC[C@H]2CN1C(=O)N1Cc2c(NC(=O)c3ccc4cnccc4n3)n[nH]c2C1(C)C [Example E4] | 8.21
COc1cccc(C(=O)Nc2n[nH]c3c2CN(C(=O)N2C[C@@H]4CCCN4C[C@@H]2C)C3(C)C)c1 [Example E5] | 7.43
C[C@H]1CN2CCC[C@H]2CN1C(=O)N1Cc2c(NC(=O)c3cc(C4CC4)n[nH]3)n[nH]c2C1(C)C [Example E6] | 8.17
C[C@H]1CN2CCC[C@H]2CN1C(=O)N1Cc2c(NC(=O)c3cnc4ccccc4n3)n[nH]c2C1(C)C [Example E7] | 7.90
C[C@H]1CN2CCC[C@H]2CN1C(=O)N1Cc2c(NC(=O)c3ccnn3C)n[nH]c2C1(C)C [Example E8] | 6.93
Cc1nc(C(=O)Nc2n[nH]c3c2CN(C(=O)N2C[C@@H]4CCCN4C[C@@H]2C)C3(C)C)cs1 [Example E9] | 7.50
C[C@H]1CN2CCC[C@H]2CN1C(=O)N1Cc2c(NC(=O)c3cc(C(C)(C)C)nn3C)n[nH]c2C1(C)C [Example E10] | 7.97
Cc1nc(C)c(C(=O)Nc2n[nH]c3c2CN(C(=O)N2C[C@@H]4CCCN4C[C@@H]2C)C3(C)C)o1 [Example E11] | 7.54

Structure (SMILES) | pKi
C[C@H]1CN2CCC[C@H]2CN1C(=O)N1Cc2c(NC(=O)c3cc(C4CC4)on3)n[nH]c2C1(C)C [Example E12] | 7.23
C[C@H]1CN2CCC[C@H]2CN1C(=O)N1Cc2c(NC(=O)c3c(F)ccc(F)c3F)n[nH]c2C1(C)C [Example E13] | 6.87
C[C@@H]1CN(C(=O)N2Cc3c(NC(=O)c4cn(C)cn4)n[nH]c3C2(C)C)[C@@H](C)CN1CC1CCOCC1 [Example E14] | 6.81
CCc1nc(C)c(C(=O)Nc2n[nH]c3c2CN(C(=O)N2C[C@@H](C)N(CC4CCOCC4)C[C@@H]2C)C3(C)C)o1 [Example F1, N-(5-{[(2S,5R)-2,5-dimethyl-4-(tetrahydro-2H-pyran-4-ylmethyl)piperazin-1-yl]carbonyl}-6,6-dimethyl-1,4,5,6-tetrahydropyrrolo[3,4-c]pyrazol-3-yl)-2-ethyl-4-methyl-1,3-oxazole-5-carboxamide] | 7.65
COCCCN1C[C@H](C)N(C(=O)N2Cc3c(NC(=O)c4cc(C)nc(C)n4)n[nH]c3C2(C)C)C[C@H]1C [Example F2] | 7.11
COCCCN1C[C@H](C)N(C(=O)N2Cc3c(NC(=O)c4cnccn4)n[nH]c3C2(C)C)C[C@H]1C [Example F3] | 6.20
CCc1cc(C(=O)Nc2n[nH]c3c2CN(C(=O)N2C[C@@H](C)N(CCCOC)C[C@@H]2C)C3(C)C)n(C)n1 [Example F4] | 7.43
COCCCN1C[C@H](C)N(C(=O)N2Cc3c(NC(=O)c4oc(C)cc4C)n[nH]c3C2(C)C)C[C@H]1C [Example F5] | 7.14
CCc1nc(C)c(C(=O)Nc2n[nH]c3c2CN(C(=O)N2C[C@@H](C)N(CCCOC)C[C@@H]2C)C3(C)C)o1 [Example F6] | 7.08
COCCCN1C[C@H](C)N(C(=O)N2Cc3c(NC(=O)Cc4c(C)noc4C)n[nH]c3C2(C)C)C[C@H]1C [Example F7] | 7.17
COCCCN1C[C@H](C)N(C(=O)N2Cc3c(NC(=O)c4ocnc4C)n[nH]c3C2(C)C)C[C@H]1C [Example F8] | 7.02
C[C@@H]1CN(C(=O)N2Cc3c(NC(=O)c4cn(C)cn4)n[nH]c3C2(C)C)[C@@H](C)CN1CC1CCOCC1 [Example F9] | 7.20
Cc1nc(C)c(C(=O)Nc2n[nH]c3c2CN(C(=O)N2C[C@@H](C)N(CC4CCOCC4)C[C@@H]2C)C3(C)C)s1 [Example F10] | 7.65
C[C@@H]1CN(C(=O)N2Cc3c(NC(=O)c4cc(C5CC5)on4)n[nH]c3C2(C)C)[C@@H](C)CN1CC1CCOCC1 [Example F11] | 7.53
Cc1cc(C(=O)Nc2n[nH]c3c2CN(C(=O)N2C[C@@H](C)N(CC4CCOCC4)C[C@@H]2C)C3(C)C)n(C)n1 [Example F12] | 7.48
Cc1cc(C(=O)Nc2n[nH]c3c2CN(C(=O)N2C[C@@H](C)N(CC4CCOCC4)C[C@@H]2C)C3(C)C)no1 [Example F13] | 7.39
CCn1nc(C)cc1C(=O)Nc1n[nH]c2c1CN(C(=O)N1C[C@@H](C)N(CC3CCOCC3)C[C@@H]1C)C2(C)C [Example F14] | 7.70
CCc1ocnc1C(=O)Nc1n[nH]c2c1CN(C(=O)N1C[C@@H](C)N(CC3CCOCC3)C[C@@H]1C)C2(C)C [Example F15] | 7.28
C[C@@H]1CN(C(=O)N2Cc3c(NC(=O)c4ccn(C)n4)n[nH]c3C2(C)C)[C@@H](C)CN1CC1CCOCC1 [Example F16] | 7.59
C[C@@H]1CN(C(=O)N2Cc3c(NC(=O)c4cc(C5CC5)n[nH]4)n[nH]c3C2(C)C)[C@@H](C)CN1CC1CCOCC1 [Example F17] | 7.71

Structure (SMILES) | pKi
CCc1cc(C(=O)Nc2n[nH]c3c2CN(C(=O)N2C[C@@H](C)N(CC4CCOCC4)C[C@@H]2C)C3(C)C)on1 [Example F18] | 7.49
CCc1cc(C(=O)Nc2n[nH]c3c2CN(C(=O)N2C[C@@H](C)N(CC4CCOCC4)C[C@@H]2C)C3(C)C)no1 [Example F19] | 7.58
Cc1nc(C)c(C(=O)Nc2n[nH]c3c2CN(C(=O)N2C[C@@H](C)N(CC4CCOCC4)C[C@@H]2C)C3(C)C)o1 [Example F20] | 7.71
Cc1cc(C(=O)Nc2n[nH]c3c2CN(C(=O)N2C[C@@H](C)N(CC4CCOCC4)C[C@@H]2C)C3(C)C)on1 [Example F21] | 7.42
Cc1nonc1C(=O)Nc1n[nH]c2c1CN(C(=O)N1C[C@@H](C)N(CC3CCOCC3)C[C@@H]1C)C2(C)C [Example F22] | 7.33
Cc1nc(C(=O)Nc2n[nH]c3c2CN(C(=O)N2C[C@@H](C)N(CC4CCOCC4)C[C@@H]2C)C3(C)C)c(C)o1 [Example F23] | 7.50
CCCc1cc(C(=O)Nc2n[nH]c3c2CN(C(=O)N2C[C@@H](C)N(CC4CCOCC4)C[C@@H]2C)C3(C)C)no1 [Example F24] | 7.23
CCc1nc(C(=O)Nc2n[nH]c3c2CN(C(=O)N2C[C@@H](C)N(CC4CCOCC4)C[C@@H]2C)C3(C)C)cs1 [Example F25] | 7.48
CCc1ccc(C(=O)Nc2n[nH]c3c2CN(C(=O)N2C[C@@H](C)N(C4CCOCC4)C[C@@H]2C)C3(C)C)nc1 [Example F51] | > 8.00
C[C@@H]1CN(C(=O)N2Cc3c(NC(=O)c4ccc(N5CCOCC5)cn4)n[nH]c3C2(C)C)[C@@H](C)CN1C1CCOCC1 [Example F52] | > 8.00
C[C@@H]1CN(C(=O)N2Cc3c(NC(=O)c4ccncn4)n[nH]c3C2(C)C)[C@@H](C)CN1C1CCOCC1 [Example F53] | 7.62
Cc1ccc(C(=O)Nc2n[nH]c3c2CN(C(=O)N2C[C@@H](C)N(C4CCOCC4)C[C@@H]2C)C3(C)C)nc1 [Example F54] | 7.91
COc1ccc(C(=O)Nc2n[nH]c3c2CN(C(=O)N2C[C@@H](C)N(C4CCOCC4)C[C@@H]2C)C3(C)C)nc1 [Example F55] | > 8.00
C[C@@H]1CN(C(=O)N2Cc3c(NC(=O)c4ccc(Cl)cn4)n[nH]c3C2(C)C)[C@@H](C)CN1C1CCOCC1 [Example F56] | > 8.00
C[C@@H]1CN(C(=O)N2Cc3c(NC(=O)c4cnccn4)n[nH]c3C2(C)C)[C@@H](C)CN1CC1CCOCC1 [Example F57] | 7.28
C[C@@H]1CN(C(=O)N2Cc3c(NC(=O)c4ncccn4)n[nH]c3C2(C)C)[C@@H](C)CN1CC1CCOCC1 [Example F58] | 6.88
Cc1noc(C)c1CC(=O)Nc1n[nH]c2c1CN(C(=O)N1C[C@@H](C)N(CC3CCOCC3)C[C@@H]1C)C2(C)C [Example F59] | 7.70
C[C@@H]1CN(C(=O)N2Cc3c(NC(=O)c4ccc(C(F)(F)F)cn4)n[nH]c3C2(C)C)[C@@H](C)CN1CC1CCOCC1 [Example F60] | 8.38
C[C@@H]1CN(C(=O)N2Cc3c(NC(=O)c4ccc(C#N)cn4)n[nH]c3C2(C)C)[C@@H](C)CN1C1CCOCC1 [Example G1, 5-cyano-N-(5-{[(2S,5R)-2,5-dimethyl-4-(tetrahydro-2H-pyran-4-yl)piperazin-1-yl]carbonyl}-6,6-dimethyl-1,4,5,6-tetrahydropyrrolo[3,4-c]pyrazol-3-yl)pyridine-2-carboxamide] | > 8.00
C[C@@H]1CN(C(=O)N2Cc3c(NC(=O)c4ccc(C#N)cn4)n[nH]c3C2(C)C)[C@@H](C)CN1C [Example G2] | 7.54
